pIC50: −log10 of the molar value.

Our source for the IC50 values is patent US9056858B2, “Indazole and pyrazolopyridine compounds as CCR1 receptor antagonists” (Boehringer Ingelheim International GmbH, priority 2009, dated 2015).

For the assay, the target named is T1, CCR1 (Homo sapiens, UniProt P32246).
T1 construct: host or cells: Non-adherent cells
T1 sequence (P32246 1-355): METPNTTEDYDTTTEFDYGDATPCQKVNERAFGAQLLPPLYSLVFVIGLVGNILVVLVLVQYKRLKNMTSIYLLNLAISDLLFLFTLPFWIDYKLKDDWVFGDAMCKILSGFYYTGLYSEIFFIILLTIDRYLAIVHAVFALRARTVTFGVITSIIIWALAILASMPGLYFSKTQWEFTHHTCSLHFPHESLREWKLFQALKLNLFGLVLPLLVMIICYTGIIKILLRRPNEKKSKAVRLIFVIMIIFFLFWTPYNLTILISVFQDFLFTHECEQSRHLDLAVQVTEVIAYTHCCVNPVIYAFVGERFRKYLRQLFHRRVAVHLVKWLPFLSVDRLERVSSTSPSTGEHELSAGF
Kind of assay: functional cellular assay measuring calcium flux in CCR1 transfected cells (block of CCR1/MIP-1α interaction). The assay is classed as cell-based. As to conditions: cells stably expressing recombinant CCR1 and G-alpha-16, MIP-1alpha added at EC80. The method, then: Compounds are assessed for the ability to block the interaction of CCR1 and MIP-1α in a functional cellular assay measuring calcium flux in CCR1 transfected cells.
Non-adherent cells purchased from Chemicon Corporation (HTS005C), stably expressing recombinant CCR1 and G-alpha-16 are grown in RPMI 1640 medium (Mediatech 10-080-CM) supplemented with 10% FBS, 0.4 mg/mL Geneticin and penicillin/streptomycin. On the day of the assay, the cells are loaded with Calcium 4 dye (Molecular Devices R7448) with Probenecid (Invitrogen P346400) at 8E5 cells/mL for 1 hour at room temperature. After 1 hour, they are seeded in a 384-well tissue culture-treated plate at a density of 20,000 cells/well. Appropriately diluted test compound is added to the well to achieve a top concentration of 3,000 nM (diluted 4-fold with 10 doses total). The final concentration of DMSO is 1%. The buffer is HBSS (Invitrogen 14025) with 20 mM HEPES at pH 7.4. The cells incubate 30 minutes at 37 C and then 30 minutes at room temperature. The plates are transferred to the […] FDSS6000 where MIP-1alpha in 1% BSA is added at the EC80 final concentration. All plates must be read within 4 hours of the start of dye-loading. Wells +/− MIP-1alpha containing diluted DMSO instead of compound serve as the controls. Data are analyzed using Activity Base software.
(Calcium flux is commonly read through the fluorescence of an indicator in the cells.)

On to `NCc1ccc(C2(NC(=O)c3cncc4c3cnn4-c3ccc(F)cc3)CC2)nc1` [1-(4-Fluoro-phenyl)-1H-pyrazolo[3,4-c]pyridine-4-carboxylic acid [1-(5-aminomethyl-pyridin-2-yl)-cyclopropyl]-amide], for which the pIC50 (as a rule, −log10 of the IC50, conventionally taken in molar units) is 6.15.

In the case of `O=C(NC1(c2ccc(Br)cn2)CC1)c1cncc2c1cnn2-c1ccc(F)cc1` [1-(4-Fluoro-phenyl)-1H-pyrazolo[3,4-c]pyridine-4-carboxylic acid [1-(5-bromo-pyridin-2-yl)-cyclopropyl]-amide], the negative-log IC50 (pIC50) is 8.05.

Consider `O=C(NC1(c2ncc(Br)cn2)CC1)c1cncc2c1cnn2-c1ccc(F)cc1` [1-(4-Fluoro-phenyl)-1H-pyrazolo[3,4-c]pyridine-4-carboxylic acid [1-(5-bromo-pyrimidin-2-yl)-cyclopropyl]-amide], for which the negative-log IC50 (pIC50) was 7.35.

As to `O=C(NC1(c2noc(C3CC3)n2)CC1)c1cncc2c1cnn2-c1ccc(F)cc1` [1-(4-Fluoro-phenyl)-1H-pyrazolo[3,4-c]pyridine-4-carboxylic acid [1-(5-cyclopropyl-1,2,4-oxadiazol-3-yl)-cyclopropyl]-amide], the negative logarithm of the IC50 (pIC50) was 7.21.

As to `CS(=O)(=O)c1ccc(C2(NC(=O)c3cncc4c3cnn4-c3ccc(F)cc3)CC2)o1` [1-(4-Fluoro-phenyl)-1H-pyrazolo[3,4-c]pyridine-4-carboxylic acid [1-(5-methanesulfonyl-furan-2-yl)-cyclopropyl]-amide], the pIC50 was 8.40.

For the molecule `CS(=O)(=O)c1cnc(C2(NC(=O)c3cncc4c3cnn4-c3ccc(F)cc3)CC2)nc1` [1-(4-Fluoro-phenyl)-1H-pyrazolo[3,4-c]pyridine-4-carboxylic acid [1-(5-methanesulfonyl-pyrimidin-2-yl)-cyclopropyl]-amide], the pIC50 is 7.85.

Turning to `O=C(NC1(c2ccc(Br)nc2)CC1)c1cncc2c1cnn2-c1ccc(F)cc1` [1-(4-Fluoro-phenyl)-1H-pyrazolo[3,4-c]pyridine-4-carboxylic acid [1-(6-bromo-pyridin-3-yl)-cyclopropyl]-amide], the negative logarithm of the IC50 (pIC50) was 7.72.

Regarding `CN(C)c1cccc(C2(NC(=O)c3cncc4c3cnn4-c3ccc(F)cc3)CC2)n1` [1-(4-Fluoro-phenyl)-1H-pyrazolo[3,4-c]pyridine-4-carboxylic acid [1-(6-dimethylamino-pyridin-2-yl)-cyclopropyl]-amide], the negative logarithm of the IC50 (pIC50) was 8.52.

For `CS(=O)(=O)c1ccc(C2(NC(=O)c3cncc4c3cnn4-c3ccc(F)cc3)CC2)cn1` [1-(4-Fluoro-phenyl)-1H-pyrazolo[3,4-c]pyridine-4-carboxylic acid [1-(6-methanesulfonyl-pyridin-3-yl)-cyclopropyl]-amide], the pIC50 was 8.15.

As to `CNc1ccc(C2(NC(=O)c3cncc4c3cnn4-c3ccc(F)cc3)CC2)cn1` [1-(4-Fluoro-phenyl)-1H-pyrazolo[3,4-c]pyridine-4-carboxylic acid [1-(6-methylamino-pyridin-3-yl)-cyclopropyl]-amide], the pIC50 is 7.55.

With `O=C(NC1(c2ccc(N3CCOCC3)nc2)CC1)c1cncc2c1cnn2-c1ccc(F)cc1` [1-(4-Fluoro-phenyl)-1H-pyrazolo[3,4-c]pyridine-4-carboxylic acid [1-(6-morpholin-4-yl-pyridin-3-yl)-cyclopropyl]-amide], the negative logarithm of the IC50 (pIC50) was 8.22.

`NS(=O)(=O)c1ccc(C2(NC(=O)c3cncc4c3cnn4-c3ccc(F)cc3)CC2)cn1` [1-(4-Fluoro-phenyl)-1H-pyrazolo[3,4-c]pyridine-4-carboxylic acid [1-(6-sulfamoyl-pyridin-3-yl)-cyclopropyl]-amide]: the pIC50 was 8.30.

For `NC(=O)CNC(=O)c1cccc(C2(NC(=O)c3cncc4c3cnn4-c3ccc(F)cc3)CC2)c1` [1-(4-Fluoro-phenyl)-1H-pyrazolo[3,4-c]pyridine-4-carboxylic acid {1-[3-(carbamoylmethyl-carbamoyl)-phenyl]-cyclopropyl}-amide], the pIC50 was 7.13.
